How the values were obtained:
[1] = target: T1, Retinoic acid receptor beta (Homo sapiens, UniProt P10826); experiment: Effective concentration against Retinoic acid receptor beta
T1 sequence (P10826 whole entry): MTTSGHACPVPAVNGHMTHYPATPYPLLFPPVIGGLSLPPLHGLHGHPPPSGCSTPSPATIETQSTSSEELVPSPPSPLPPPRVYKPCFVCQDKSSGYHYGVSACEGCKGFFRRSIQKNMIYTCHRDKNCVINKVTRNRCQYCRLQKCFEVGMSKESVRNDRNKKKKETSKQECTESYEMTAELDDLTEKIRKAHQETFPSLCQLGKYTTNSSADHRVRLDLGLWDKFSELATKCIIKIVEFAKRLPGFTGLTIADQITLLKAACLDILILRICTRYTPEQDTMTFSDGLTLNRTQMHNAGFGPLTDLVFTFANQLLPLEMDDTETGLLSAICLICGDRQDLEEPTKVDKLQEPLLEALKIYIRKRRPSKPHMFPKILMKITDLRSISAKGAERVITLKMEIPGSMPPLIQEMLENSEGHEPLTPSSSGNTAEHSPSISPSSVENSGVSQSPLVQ

[2] = target: T2, Retinoic acid receptor gamma (Homo sapiens, UniProt P13631); experiment: Effective concentration against RAR-gamma receptor
T2 sequence (P13631 whole entry): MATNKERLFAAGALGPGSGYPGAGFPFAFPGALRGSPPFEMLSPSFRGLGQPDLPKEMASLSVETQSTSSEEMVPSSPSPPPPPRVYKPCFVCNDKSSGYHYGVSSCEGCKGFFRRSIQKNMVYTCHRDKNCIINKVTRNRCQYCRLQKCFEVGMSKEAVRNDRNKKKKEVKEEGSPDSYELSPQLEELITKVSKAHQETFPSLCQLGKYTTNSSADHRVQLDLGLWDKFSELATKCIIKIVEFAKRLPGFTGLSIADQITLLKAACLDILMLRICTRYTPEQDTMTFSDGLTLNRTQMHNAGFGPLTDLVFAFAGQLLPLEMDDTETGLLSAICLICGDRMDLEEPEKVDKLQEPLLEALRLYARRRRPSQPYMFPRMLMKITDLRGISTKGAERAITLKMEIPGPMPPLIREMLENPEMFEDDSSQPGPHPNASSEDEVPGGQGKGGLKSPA

[3] = target: T3, Retinoic acid receptor alpha (Homo sapiens, UniProt P10276); experiment: Effective concentration against RAR-alpha receptor
T3 sequence (P10276 whole entry): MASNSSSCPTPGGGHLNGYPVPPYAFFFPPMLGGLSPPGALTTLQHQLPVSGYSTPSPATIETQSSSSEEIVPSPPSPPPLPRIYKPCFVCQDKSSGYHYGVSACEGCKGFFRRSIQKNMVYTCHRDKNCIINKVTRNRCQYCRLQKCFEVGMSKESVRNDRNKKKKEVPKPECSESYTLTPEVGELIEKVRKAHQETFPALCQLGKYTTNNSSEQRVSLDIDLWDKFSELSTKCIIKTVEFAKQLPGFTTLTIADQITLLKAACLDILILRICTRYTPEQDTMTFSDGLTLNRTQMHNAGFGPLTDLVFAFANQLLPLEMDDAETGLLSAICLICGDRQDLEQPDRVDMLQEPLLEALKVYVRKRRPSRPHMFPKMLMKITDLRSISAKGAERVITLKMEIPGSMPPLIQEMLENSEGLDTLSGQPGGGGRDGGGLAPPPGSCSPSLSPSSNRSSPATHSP

[4] = target: T4, Retinoic acid receptor RXR-alpha (Homo sapiens, UniProt P19793); experiment: Effective concentration against RXR-alpha receptor
T4 sequence (P19793 whole entry): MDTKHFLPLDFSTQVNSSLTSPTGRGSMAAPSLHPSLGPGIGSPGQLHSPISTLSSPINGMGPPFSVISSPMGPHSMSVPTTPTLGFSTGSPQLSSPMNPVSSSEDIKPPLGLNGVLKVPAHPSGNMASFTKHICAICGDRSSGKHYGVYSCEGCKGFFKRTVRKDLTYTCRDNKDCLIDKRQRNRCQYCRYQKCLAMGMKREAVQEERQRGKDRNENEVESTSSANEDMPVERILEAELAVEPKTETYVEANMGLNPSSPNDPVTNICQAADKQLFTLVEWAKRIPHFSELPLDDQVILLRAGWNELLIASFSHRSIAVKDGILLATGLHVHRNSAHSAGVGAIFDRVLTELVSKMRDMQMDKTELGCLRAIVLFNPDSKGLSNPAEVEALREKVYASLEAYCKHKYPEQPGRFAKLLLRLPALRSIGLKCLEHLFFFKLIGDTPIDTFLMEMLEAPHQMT

[5] = target: T1, Retinoic acid receptor beta; experiment: Effective concentration against RAR-beta receptor

Compound	EC50 [1]	EC50 [2]	EC50 [3]	EC50 [4]	EC50 [5]
CC1=C(/C=C/C(C)=C\c2ccc(C(=O)O)cc2)C(C)(C)CCC1	1800 nM	2000 nM	5000 nM		
CC1=C(/C=C/C(C)=C/c2ccc(C(=O)O)cc2)C(C)(C)CCC1	5 nM	35 nM	240 nM		
C/C(=C\c1ccc2c(c1)C(C)(C)CCC2(C)C)c1ccc(C(=O)O)cc1	25 nM	19 nM	37 nM		
CC1=C(CC/C(C)=C\c2ccc(C(=O)O)cc2)C(C)(C)CCC1	2000 nM	1300 nM			
CC1=C(CC/C(C)=C/c2ccc(C(=O)O)cc2)C(C)(C)CCC1	20 nM	210 nM	550 nM	1500 nM	
C/C(=C\c1ccc(C(=O)O)cc1)c1ccc2c(c1)C(C)(C)CCS2	15 nM	30 nM	27 nM		
C/C(=C\c1ccc(C(=O)O)cc1)c1ccc2c(c1)C1CCC2C1 (stereo not drawn)		550 nM			1100 nM
C/C(=C/c1ccc(C(=O)O)cc1)c1ccc2c(c1)C(C)(C)CCS2	250 nM	1100 nM	2300 nM		
C/C(=C\c1ccc2c(c1)C(C)(C)CCS2)c1ccc(C(=O)O)cc1	40 nM	47 nM	45 nM		
C/C(=C/c1ccc(C(=O)O)cc1)c1ccc2c(c1)C1CCC2C1 (stereo not drawn)		70 nM			
C/C(=C/c1ccc(C(=O)O)cc1)c1ccc2c(c1)C(C)(C)CCC2(C)C				2700 nM	
C/C(=C/c1ccc2c(c1)C(C)(C)CCC2(C)C)c1ccc(C(=O)O)cc1	1900 nM	2700 nM		1100 nM	
C/C(=C/c1ccc2c(c1)C(C)(C)CCS2)c1ccc(C(=O)O)cc1	1500 nM	1500 nM	2100 nM	2800 nM	
CC1(C)CCC(C)(C)c2cc(-c3ccccc3-c3ccc(C(=O)O)cc3)ccc21	3200 nM	100 nM		2800 nM	
